# Data: ChEMBL document CHEMBL3804767, “Discovery and Preclinical Evaluation of BMS-955829, a Potent Positive Allosteric Modulator of mGluR5” (ACS Med Chem Lett, 2016)
# Legend:
# [1] = test system: Mus musculus; assay: Neurotoxicity in C57/BL6 mouse assessed as induction of convulsion at 3 mg/kg, ip; assay type: toxicity, organism-based; settings: in vivo
# [2] = test system: Mus musculus; assay: Toxicity in C57/BL6 mouse assessed as death at 3 mg/kg, ip; assay type: organism-based; settings: in vivo
# [3] = Protein binding in plasma (unknown origin); assay type: ADME, cell-free; settings: read-out: PPB (converted)
# [4] = test system: Mus musculus; assay: Neurotoxicity in C57/BL6 mouse assessed as induction of convulsion at 10 mg/kg, ip; assay type: toxicity, organism-based; settings: in vivo
# [5] = target: T1, Metabotropic glutamate receptor 5 (Homo sapiens, UniProt P41594)
# T1 sequence (P41594 whole entry): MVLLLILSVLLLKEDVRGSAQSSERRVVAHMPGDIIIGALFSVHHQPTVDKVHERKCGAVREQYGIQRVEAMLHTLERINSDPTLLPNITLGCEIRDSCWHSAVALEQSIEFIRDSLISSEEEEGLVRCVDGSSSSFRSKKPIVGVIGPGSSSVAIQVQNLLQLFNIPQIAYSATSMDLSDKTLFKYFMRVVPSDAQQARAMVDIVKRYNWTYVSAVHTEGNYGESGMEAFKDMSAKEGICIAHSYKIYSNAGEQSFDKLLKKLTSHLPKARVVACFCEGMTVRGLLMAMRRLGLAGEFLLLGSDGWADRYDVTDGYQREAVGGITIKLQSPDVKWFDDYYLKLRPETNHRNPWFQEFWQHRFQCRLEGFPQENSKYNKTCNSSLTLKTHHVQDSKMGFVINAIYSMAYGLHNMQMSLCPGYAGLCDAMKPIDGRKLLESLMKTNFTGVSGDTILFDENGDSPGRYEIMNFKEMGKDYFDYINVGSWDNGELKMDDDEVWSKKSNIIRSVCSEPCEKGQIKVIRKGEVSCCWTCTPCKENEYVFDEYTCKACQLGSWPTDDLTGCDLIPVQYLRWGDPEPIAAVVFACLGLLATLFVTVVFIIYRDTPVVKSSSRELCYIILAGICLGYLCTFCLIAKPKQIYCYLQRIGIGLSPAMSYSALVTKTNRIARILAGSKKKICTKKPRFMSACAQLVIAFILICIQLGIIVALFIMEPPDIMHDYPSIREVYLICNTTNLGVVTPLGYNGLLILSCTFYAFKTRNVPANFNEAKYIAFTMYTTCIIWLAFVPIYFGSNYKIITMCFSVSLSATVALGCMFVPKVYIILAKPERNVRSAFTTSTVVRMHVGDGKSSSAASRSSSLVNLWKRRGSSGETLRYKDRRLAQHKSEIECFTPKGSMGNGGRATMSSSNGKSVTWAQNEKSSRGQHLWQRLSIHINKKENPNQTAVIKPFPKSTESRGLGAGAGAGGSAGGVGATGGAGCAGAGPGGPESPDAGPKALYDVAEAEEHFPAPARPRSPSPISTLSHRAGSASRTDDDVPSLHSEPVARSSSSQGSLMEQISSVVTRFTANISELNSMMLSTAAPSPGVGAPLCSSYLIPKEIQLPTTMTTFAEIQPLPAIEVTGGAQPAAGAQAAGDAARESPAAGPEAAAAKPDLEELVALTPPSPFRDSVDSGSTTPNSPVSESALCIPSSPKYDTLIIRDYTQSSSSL
# Description: Positive allosteric modulation of human mGlu5A receptor expressed in HEK293 cells coexpressing rat glutamate-aspartate transporter assessed as potentiation of L-glutamate-induced Ca2+ signal incubated for 60 mins by calcium 4 dye based FLIPR assay
# [6] = target: T1, Metabotropic glutamate receptor 5; remark: listed apart in the source
# Description: Displacement of [3H]MPEPgamma in mGlu5 receptor (unknown origin) incubated for 60 mins by liquid scintillation counting method
# [7] = target: T1, Metabotropic glutamate receptor 5; remark: listed apart in the source
# Description: Agonist activity at human mGlu5A receptor expressed in HEK293 cells coexpressing rat glutamate-aspartate transporter assessed as induction of Ca2+ release by calcium 4 dye based FLIPR assay
# [8] = target: Metabotropic glutamate receptor 5 (Rattus norvegicus, UniProt P31424); assay: Agonist activity at mGlu5A receptor in primary rat cortical astrocytes; assay type: cell-based
# Sequence of Metabotropic glutamate receptor 5 (Rattus norvegicus, UniProt P31424) (P31424 whole entry): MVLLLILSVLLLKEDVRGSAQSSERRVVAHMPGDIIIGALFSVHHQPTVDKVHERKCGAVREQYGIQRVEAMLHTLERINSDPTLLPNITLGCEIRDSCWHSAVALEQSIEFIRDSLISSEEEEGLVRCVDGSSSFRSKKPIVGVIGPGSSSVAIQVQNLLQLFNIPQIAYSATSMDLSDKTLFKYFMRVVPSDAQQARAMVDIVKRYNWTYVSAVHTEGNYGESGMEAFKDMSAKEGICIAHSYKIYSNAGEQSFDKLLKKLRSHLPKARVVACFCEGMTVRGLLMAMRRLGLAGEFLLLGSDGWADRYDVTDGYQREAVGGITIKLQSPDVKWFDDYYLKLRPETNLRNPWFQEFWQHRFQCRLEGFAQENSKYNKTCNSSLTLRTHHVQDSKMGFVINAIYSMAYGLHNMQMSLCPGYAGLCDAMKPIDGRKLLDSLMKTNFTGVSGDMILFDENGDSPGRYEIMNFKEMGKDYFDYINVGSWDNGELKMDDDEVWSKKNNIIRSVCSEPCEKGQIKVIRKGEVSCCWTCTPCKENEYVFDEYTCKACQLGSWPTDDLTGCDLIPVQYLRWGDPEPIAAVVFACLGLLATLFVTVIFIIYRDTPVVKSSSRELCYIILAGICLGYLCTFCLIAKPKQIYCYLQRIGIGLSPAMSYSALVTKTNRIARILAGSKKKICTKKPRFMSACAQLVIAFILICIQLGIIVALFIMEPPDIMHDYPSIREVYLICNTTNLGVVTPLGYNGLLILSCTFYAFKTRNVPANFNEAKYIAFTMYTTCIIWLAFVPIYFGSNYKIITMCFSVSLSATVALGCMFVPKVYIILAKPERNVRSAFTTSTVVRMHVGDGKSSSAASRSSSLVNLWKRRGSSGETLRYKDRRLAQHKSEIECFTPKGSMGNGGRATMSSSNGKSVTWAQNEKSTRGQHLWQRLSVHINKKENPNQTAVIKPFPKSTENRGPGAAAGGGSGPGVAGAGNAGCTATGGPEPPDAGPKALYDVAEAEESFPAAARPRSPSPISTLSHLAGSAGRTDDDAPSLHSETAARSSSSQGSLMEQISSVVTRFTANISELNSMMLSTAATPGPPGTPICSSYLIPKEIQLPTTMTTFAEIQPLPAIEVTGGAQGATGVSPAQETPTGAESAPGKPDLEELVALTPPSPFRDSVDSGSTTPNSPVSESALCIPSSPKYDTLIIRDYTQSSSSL
# [9] = test system: Mus musculus; assay: Neurotoxicity in C57/BL6 mouse assessed as induction of convulsion at 10 mg/kg, ip coadministered with (4R,5R)-5-Phenyl-4-(4-(phenylethynyl)pyridin-2-yl)oxazolidin-2-one; assay type: toxicity, organism-based; settings: in vivo
SMILES,Activity [1],Activity [2],fraction unbound [3],Activity [4],EC50 [5] [nM],Ki [6] [nM],EC50 [7] [nM],EC50 [8] [nM],Activity [9]
O=C1N[C@H](c2cncc(C#Cc3ccccc3)c2)[C@@H](c2cccc(F)c2)O1,Toxic,Toxic,0.004,–,–,–,–,–,–
COc1cccc([C@H]2OC(=O)N[C@@H]2c2cccc(C#Cc3ccccc3)c2)c1,–,–,0.003,Non-toxic,29,13,> 30000,–,–
O=C1N[C@H](c2cncc(C#Cc3cncc(F)c3)c2)[C@@H](c2ccc(F)cc2)O1,–,–,0.035,Toxic,6,25,–,310,Non-toxic
